Test results as given in publication PMC5865651, “Novel inhibitor candidates of TRPV2 prevent damage of dystrophic myocytes and ameliorate against dilated cardiomyopathy in a hamster model” (Oncotarget, 2018).

Legend:
TRPV2 [1] = tested on: TRPV2; parameters: method as in PMID 17673572; details: cited from earlier work
mouse TRPV2 (mTRPV2) = target: T1, mouse TRPV2 (mTRPV2) (Mus musculus, UniProt Q9WTR1); assay: 2-APB-induced increase in [Ca2+]i in HEK293 cells expressing mTRPV2 (fura-2, microplate reader / imaging); type: cell-based; details: for IC50 / inhibition of the 2-APB-induced increase in [Ca2+]i: HEK293 cells expressing mTRPV2, 2-APB 0.3 mM, CaCl2 5 mM, pH 6.5; for IC50: read-out: IC50 for the 2-APB-induced increase in [Ca2+]i (Ca2+ response); for Ca2+ responses elicited by TRPV2 agonists (initial assessment): cell-based assay, before optimisation of conditions; for inhibition of the 2-APB-induced increase in [Ca2+]i: concentrations up to 100 μM
T1 construct: expressed in transfected cells
T1 sequence (Q9WTR1 1-756): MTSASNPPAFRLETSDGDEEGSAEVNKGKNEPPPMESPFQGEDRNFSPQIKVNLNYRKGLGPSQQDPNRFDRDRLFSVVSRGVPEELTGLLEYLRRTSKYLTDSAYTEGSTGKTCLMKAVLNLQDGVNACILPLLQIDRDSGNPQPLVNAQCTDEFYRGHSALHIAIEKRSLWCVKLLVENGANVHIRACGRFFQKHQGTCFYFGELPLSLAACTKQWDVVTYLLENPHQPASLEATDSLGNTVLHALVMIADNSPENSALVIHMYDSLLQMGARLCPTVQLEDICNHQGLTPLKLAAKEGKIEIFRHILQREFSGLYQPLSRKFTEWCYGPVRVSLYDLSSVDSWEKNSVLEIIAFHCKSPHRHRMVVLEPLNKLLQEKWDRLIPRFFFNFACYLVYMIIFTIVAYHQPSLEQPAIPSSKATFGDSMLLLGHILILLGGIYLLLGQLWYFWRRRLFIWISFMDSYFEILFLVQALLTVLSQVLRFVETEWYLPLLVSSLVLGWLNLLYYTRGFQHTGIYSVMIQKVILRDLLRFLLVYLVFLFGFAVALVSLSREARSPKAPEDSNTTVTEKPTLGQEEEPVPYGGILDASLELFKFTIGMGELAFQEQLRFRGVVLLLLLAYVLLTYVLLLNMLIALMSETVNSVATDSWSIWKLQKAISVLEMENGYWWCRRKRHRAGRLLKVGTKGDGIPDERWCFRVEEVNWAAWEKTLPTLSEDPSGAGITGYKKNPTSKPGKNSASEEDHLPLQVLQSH
Protocol: HEK293 cells expressing mouse TRPV2 (mTRPV2) and non-transfected HEK293 cells were loaded with fura-2-AM and placed in low CaCl2 medium (0.5 mM).
For the drug screening, we designed a method involving measurement of the Ca^2+ response using a 96-well high-throughput plate-reader. Cells were placed in low CaCl2 (0.5 mM) medium, which was replaced with high CaCl2 medium (5 mM) with or without the TRPV agonist 2-APB and adjusted to various pH values.
(§1) [Ca^2+]i was measured by a ratiometric fluorescence method as previously described. Briefly, HEK293 cells were loaded with 4 μM fura-2-AM for 30 min at 37° C and maintained in balanced salt solution (BSS) (146 mM NaCl, 4 mM KCl, 2 mM MgCl2, 0.5 mM CaCl2, 10 mM glucose, 0.1% bovine serum albumin, and 10 mM HEPES/Tris, pH 7.4). Fura-2-AM fluorescence was measured using an Aquacosmos fluorescence image processor (Hamamatsu Photonics, Hamamatsu, Japan). The time-course data are presented as the ratio of fluorescence at an excitation wavelength of 340 nm to that at 380 nm. The increase in the fluorescence ratio induced by the TRPV2 agonist 2-APB or high extracellular Ca^2+ (ΔR) was normalized to the initial ratio (R0) before stimulation. The fluorescence relative ratio (ΔR/R0) was plotted as the summary data in the fluorescence imaging analysis.
For screening, cells were plated in 96-well plates and the fura-2-AM fluorescence ratio at excitation wavelengths of 340 nm and 380 nm was monitored using a GENios Pro microplate reader (Tecan, Research Triangle Park, NC, USA) or POLARstar Omega (BMG Labtech, Germany). Cells were stimulated in BSS containing 5 mM CaCl2. […] All Ca^2+ measurements were carried out at room temperature. […] For simplicity, the results are presented as normalized values (% maximum) from the microplate reader experiment.

hTRPC1 = target: T2, hTRPC1 (Homo sapiens, UniProt P48995); assay: Store-operated Ca2+ entry after thapsigargin in hTRPC1-transfected HEK293 cells; type: cell-based; details: hTRPC1-transfected HEK293 cells; thapsigargin; compound 100 μM
T2 construct: expressed in transfected cells; host or cells: HEK293 cells
Protocol: Figure 4 Effects of inhibitor compounds on the Ca^2+ response of cells expressing hTRPV1, hTRPV2, or hTRPC1 (A) Effect of compounds on CaCl2 (5 mM)-induced peak fluorescence ratio in non-transfected (nt) or hTRPV2-transfected CHO cells. The extracellular Ca^2+-dependent increase in the ratio of fura-2 fluorescence intensity at 340/380 nm (ΔR, 2 min after addition of chemicals) was plotted as ΔR/R0 after normalising to the initial fluorescence ratio (R0). […] Solid bar, no inhibitor. (B) Effect of compounds on 2-APB (1 mM)/high extracellular CaCl2-induced peak fluorescence ratio in nt or hTRPV1-transfected HEK293 cells. […] (C) Effect of compounds on store-operated Ca^2+ entry in nt or hTRPC1-transfected HEK293 cells. Cells were treated with the endoplasmic reticulum Ca^2+ pump inhibitor thapsigargin and exposed to CaCl2 and the indicated compounds. ΔR was measured 2 min after the addition of CaCl2. […] Data are shown as mean ± SD (n = 5).
as §1, with “Briefly, HEK293 cells were loaded with 4 μM fura-2-AM for 30 min at 37° C and maintained in balanced salt solution (BSS) (146 mM NaCl, 4 mM KCl, 2 mM MgCl2, 0.5 mM CaCl2, 10 mM glucose, 0.1% bovine serum albumin, and 10 mM HEPES/Tris, pH 7.4).” left out

J2N-k myocytes = assay: Stretch-induced CK release from J2N-k myocytes; type: cell-based, hamster; details: 500 μM, 30 min pretreatment, cyclic stretch 20% elongation 1 h
Protocol: (§2) Creatine phosphokinase (CK) activity in the medium was determined using an in vitro colorimetric assay kit (CK Test Kit; Wako Pure Chemical Industries, Ltd., Osaka, Japan) according to the manufacturer's protocol The cTN-I level in the serum was measured, while quantitative immunoblotting and immunocytochemistry were performed as previously described. Protein concentration was measured using the bicinchoninic acid assay (Pierce Chemical Co., Rockford, IL, USA) with bovine serum albumin as the standard. All histochemical and physiological analyses were performed by investigators blinded to the drug treatments. Unless otherwise stated, results are presented as the mean ± SD of at least 5 determinations. The unpaired Student's t-test and one-way ANOVA followed by Dunnett's test were used to analyse the data. Values of P < 0.05 (indicated as asterisks in the figures) were considered statistically significant. All cellular measurements were repeated at least 5 times. Representative data are shown.

[2] = tested on: cardiomyopathic J2N-k hamsters; assay: Cardiomyopathy in J2N-k hamsters in vivo (echocardiography, serum cTN-I, Masson's trichrome fibrosis); parameters: species or system hamster; details: 300 mg/kg/day mixed with feed, 3 weeks
Protocol: Male δ-SG-deficient cardiomyopathic J2N-k and age-matched wild-type J2N-n hamsters (9 weeks old) were purchased from Japan SLC, Inc. (Shizuoka, Japan). Tranilast was ingested mixed with feed (300 mg/kg/day) as described previously, whereas other drugs (Figure 1) were administered orally in the drinking water at doses of 30 mg/kg (except lumin) per day for 3 weeks. In case of lumin, we first performed dose-dependent experiment at dose of 1,10 and100 mg/kg per day for 3 weeks, in order to determine the effective dose. […] After drug treatment, serum cardiac troponin (cTN)-I was measured and echocardiography analysis was performed. Histochemistry of cardiac muscles was performed as previously described. All animal experiments were performed according to the Guidelines for Animal Experimentation of the National Cerebral and Cardiovascular Center Research Institute.
Ventricles were fixed in phosphate-buffered saline containing 10% formalin and embedded in paraffin. Serial sections were cut at a thickness of 5 μm and stained with Masson's trichrome stain for morphological analysis. Sections were viewed under a BX41 light microscope (Olympus, Tokyo, Japan). Images were acquired with an FX380 digital camera (Olympus) and analysed using an FLVFS-LS imaging system (Flovel, Tokyo, Japan).
Fibrosis was assessed by measuring Masson's trichrome-positive areas. Briefly, colour images were converted to binary form by setting the threshold value so as to detect only blue-stained fibrotic areas, which were summed and reported as a percentage of the total.
Cardiac function was evaluated by echocardiography using a Sonos5500 ultrasound system (Hewlett-Packard, Palo Alto, CA, USA) with a 12-MHz transducer and M-mode imaging. The animals were sedated with tribromoethanol (350 mg/kg by intraperitoneal injection) during the process.
as §2

mTRPV2 channel = target: T3, mTRPV2 channel (Mus musculus, UniProt Q9WTR1); assay: Whole-cell patch clamp of 2-APB-evoked mTRPV2 current in HEK293 cells; type: cell-based; details: tranilast 100 μM; 200 μM 2-APB; data not shown
T3 construct: expressed in transfected cells
T3 sequence (Q9WTR1 1-756): T1 sequence (Q9WTR1 1-756)
Protocol: The fluorescence ratio was measured by a microplate reader and normalized by the maximal value. Data are shown as mean ± SD (n = 5). […] The current values at −100 mV measured by an every-2-second ramp protocol were plotted. […] The current waveforms of the control cells and the cells 11 minutes after application of 15 μM lumin were superimposed. The L-type Ca^2+ channel currents were elicited by depolarizing pulses of 0 mV for 200 milliseconds from −80 mV.
TRPV2 currents were recorded under voltage-clamp conditions by the whole-cell patch-clamp technique. Patch pipettes (2–5 MΩ) were filled with an intracellular solution containing 110 mM K-aspartate, 30 mM KCl, 10 mM NaCl, 1 mM MgCl2, 10 mM BAPTA, 10 mM HEPES, and 3 mM MgATP (adjusted to pH 7.2 with KOH). The extracellular solution contained 145 mM NaCl, 5 mM KCl, 1.5 mM MgCl2, 1 mM EGTA, 10 mM HEPES, and 10 mM glucose (pH was adjusted to 6.5 with NaOH). Because TRPV2 was reported to desensitize in the presence of extracellular Ca^2+ [41], we used nominally Ca^2+-free medium containing 1 mM EGTA to prevent desensitization. In the experiments confirming the pH dependence of the response, the pH was adjusted to 7.4. In the whole-cell recordings, the membrane potential of the cell was held at −60 mV, while voltage ramps of 400 ms from −100 mV to +60 mV were applied every 2 seconds. Currents through the electrode were recorded at 5 kHz and filtered at 2 kHz by an Axopatch 200B amplifier (Molecular Devices, LLC, Sunnyvale, CA, USA). The junctional potential was −11.7 mV.

TRPV2 [3] = tested on: TRPV2; parameters: method as in PMID 21147993; details: TRPV2-transfected HEK293 cells; cited from earlier work

T2 sequence (P48995 whole entry): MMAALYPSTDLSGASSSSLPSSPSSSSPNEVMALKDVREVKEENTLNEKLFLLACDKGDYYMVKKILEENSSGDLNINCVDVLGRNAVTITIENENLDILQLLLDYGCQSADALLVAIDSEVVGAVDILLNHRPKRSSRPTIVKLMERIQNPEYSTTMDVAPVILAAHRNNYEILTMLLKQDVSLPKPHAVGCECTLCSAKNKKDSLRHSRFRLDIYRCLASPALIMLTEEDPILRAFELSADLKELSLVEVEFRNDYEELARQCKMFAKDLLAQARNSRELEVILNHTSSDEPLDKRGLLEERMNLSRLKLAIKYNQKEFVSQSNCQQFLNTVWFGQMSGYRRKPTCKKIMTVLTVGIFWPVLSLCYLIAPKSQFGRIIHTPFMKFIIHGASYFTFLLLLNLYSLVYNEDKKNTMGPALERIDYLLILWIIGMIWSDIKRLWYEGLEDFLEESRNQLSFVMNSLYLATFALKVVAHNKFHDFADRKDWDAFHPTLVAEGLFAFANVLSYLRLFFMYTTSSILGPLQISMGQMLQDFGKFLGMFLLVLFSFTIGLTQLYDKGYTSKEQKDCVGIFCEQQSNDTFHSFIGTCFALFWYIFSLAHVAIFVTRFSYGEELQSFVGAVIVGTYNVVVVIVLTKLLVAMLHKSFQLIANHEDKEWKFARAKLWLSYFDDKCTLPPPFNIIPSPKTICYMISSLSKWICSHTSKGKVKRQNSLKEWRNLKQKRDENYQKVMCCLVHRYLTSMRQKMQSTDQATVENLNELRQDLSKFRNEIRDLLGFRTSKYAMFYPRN

## FC(F)(F)c1ccccc1-n1ccnc1 [1-(2-(trifluoromethyl)phenyl)imidazole]
TRPV2 [1]
  effective doses for inhibition of TRPV2 activation: 100 to 1000 µM

## Nc1ccncc1 [4-amino-pyridine]
TRPV2 [1]
  effective doses for inhibition of TRPV2 activation: 100 to 1000 µM

## COc1ccc(CCCOC(Cn2ccnc2)c2ccc(OC)cc2)cc1 (stereo not drawn) [SKF96365, 1-[β-[3-(4-methoxyphenyl)propoxy]-4-methoxyphenethyl]-1H-imidazole]
Mouse TRPV2 (mTRPV2)
  IC50: ≥ 10 µM
hTRPC1
  effect on store-operated increase in [Ca2+]i: strongly inhibited

## C=C(C)[C@@H]1CCC(C)=C[C@H]1c1c(O)cc(CCCCC)cc1O [cannabidiol]
Mouse TRPV2 (mTRPV2)
  Ca2+ responses elicited by TRPV2 agonists (initial assessment): too small

## CC(C)c1ccc(C(=O)NC(=N)N)cc1S(C)(=O)=O [cariporide]
Mouse TRPV2 (mTRPV2)
  inhibition of the 2-APB-induced increase in [Ca2+]i: did not inhibit

## COc1ccc([C@@H]2Sc3ccccc3N(CCN(C)C)C(=O)[C@@H]2OC(C)=O)cc1 [diltiazem]
Mouse TRPV2 (mTRPV2)
  inhibition of the 2-APB-induced increase in [Ca2+]i: did not inhibit

## CCCN(CCC)S(=O)(=O)c1ccc(C(=O)O)cc1 [probenecid]
Mouse TRPV2 (mTRPV2)
  Ca2+ responses elicited by TRPV2 agonists (initial assessment): too small

## [H]/N=C(/N)N[C@H]1[C@H](O)[C@@H](O)[C@H](O[C@@H]2O[C@@H](C)[C@](O)(C=O)[C@H]2O[C@@H]2O[C@@H](CO)[C@H](O)[C@@H](O)[C@@H]2NC)[C@@H](N/C(N)=N\[H])[C@@H]1O [streptomycin]
Mouse TRPV2 (mTRPV2)
  inhibition of the 2-APB-induced increase in [Ca2+]i: did not inhibit

## CC[N+](CC)(CC)CC [tetraethylammonium]
TRPV2 [1]
  effective doses for inhibition of TRPV2 activation: 100 to 1000 µM

## COc1ccc(/C=C/C(=O)Nc2ccccc2C(=O)O)cc1OC [tranilast, N-[3,4-dimethoxycinnamonyl]-anthranilic acid]
J2N-k myocytes
  reduction of stretch-induced CK release: up to 70%
Mouse TRPV2 (mTRPV2)
  IC50: ≥ 10 µM
[2]
  effect on fibrosis (Masson's trichrome): prevented fibrosis
  effect on fractional shortening (FS): prevented
  effect on left ventricular end-diastolic dimension (LVDd): small effect
  effect on left ventricular end-systolic dimension (LVDs): prevented the increase
  effect on serum level of cTN-I: reduced
mTRPV2 channel
  effect on TRPV2 channel activity: did not inhibit
TRPV2 [3]
  effect on pressure-induced inward current: blocked
